A short description of data set [1]: PAMPA-BBB membrane permeability assay. The conditions noted are these: pig, PAMPA, 100 μg/ml, pH 7.4. On the procedure: The blood–brain barrier limits drug access into the brain, due to tight junctions, membrane drug transporters, and unique lipid composition. Porcine whole-brain lipid is successfully used in passive permeability test for CNS drugs.
The parallel artificial membrane permeation assay (PAMPA) was carried out in a sandwich-like 96-well PAMPA plate formed by a top filter plate containing acceptor wells and a bottom plate containing donor wells. Each composite well was divided into two chambers: 300 μl of donor solution (test article or QC standards) at the bottom and 200 μl of acceptor buffer (PBS buffer containing 5% DMSO) at the top, separated by a polyvinylidene fluoride (PVDF, 0.45 μm pore size) membrane, coated with 4 μl of 20 mg/ml porcine polar brain lipid (PBL) in n-dodecane. […] The final DMSO concentration in working stock solution is 5%. Each compound was performed in triplicate. The test compound diffused from the donor well through the lipid membrane and into the acceptor well. The sandwich plate was placed with the plate lid and incubated at room temperature for approximately 18 h. After reaching diffusion equilibration, the PAMPA sandwich plate was disassembled and the concentration of drug in the acceptor, the donor, and the reference wells was determined using a TECAN microplate reader (Durham, NC, USA).
On the technique in general: The PAMPA barrier holds no transporters, so it reflects passive diffusion.

For data set [2] the following is noted: PAMPA-BBB, known value; no reference given; cited from earlier work.

The values that follow come from PMC3975964, “Protective effect of a sesamin derivative, 3-bis (3-methoxybenzyl) butane-1, 4-diol on ischemic and hypoxic neuronal injury” (Journal of Biomedical Science, 2014).

Molecules are shown by their SMILES.

As to `c1cc2c(cc1[C@H]1OC[C@H]3[C@@H]1CO[C@@H]3c1ccc3c(c1)OCO3)OCO2` [Sesamin, sesamin], the Pe in data set [1] is 0.00 ± 0.01 10^ -6 cm/s.
As to `Cn1c(=O)c2[nH]cnc2n(C)c1=O` [Theophylline, theophylline], in data set [2], the “Known Pe” value is given as 0.12 ~ 0.18 10^ -6 cm/s.
